Assay results as given in patent US10053463B2 (Janssen Pharmaceutica NV, priority 2013, dated 2018).

Target: P2X7 (Homo sapiens (Human), UniProt Q99572)
Experiment: P2X7 antagonism in human peripheral blood mononuclear cells (PBMCs), IL-1β release
Format: cell-based
Settings: P2X7; Table 3 (additional runs); 10 μM compound; read-out: PBMC 10 μM (% control)
Procedure: P2X7 Antagonism in Human Peripheral Blood Mononuclear Cells (PBMCs) and Human Whole Blood.
Human blood was collected using a blood donor program. PBMCs were isolated from blood using a Ficoll density gradient technique. Briefly, blood was laid on Ficoll solution and centrifuged at RT for 20 minutes at 2000 rpm. The buffy layer (between red blood cells and plasma) was carefully collected by aspiration, washed with PBS and centrifuged again at 1500 rpm for 15 minutes. The resulting cell pellet was washed and plated on 96 well-plates for experiments. For the Human Whole Blood experiments, 150 μl of human blood was platted on 96 well-plates. Lipopolysaccharide (LPS) (30 ng/ml) was added to each well and incubated for 1 hour. Test compounds were then added and incubated for 30 minutes. The P2X7 agonist, 2′(3′)-O-(4-benzoylbenzoyl) adenosine 5′-triphosphate (Bz-ATP) was then added at a final concentration of 0.5 mM (PBMC) or 1 mM (blood). Cells were incubated for an additional 1.5 hours. At that point, supernatant was collected and stored for IL-1β assay using manufacturer's protocol for enzyme-linked immunosorbent assay (ELISA). Data was expressed as percent control, where control is defined as the difference in IL-1β release in LPS+Bz-ATP samples and LPS only samples. Data was plotted as response (% control) versus concentration to generate IC50 values. […] Data are analyzed and graphed on Graphpad Prism 5. For analysis, each concentration point is averaged from triplicate values and the averaged values are plotted on Graphpad Prism.

Sequence of P2X7 (Q99572 whole entry): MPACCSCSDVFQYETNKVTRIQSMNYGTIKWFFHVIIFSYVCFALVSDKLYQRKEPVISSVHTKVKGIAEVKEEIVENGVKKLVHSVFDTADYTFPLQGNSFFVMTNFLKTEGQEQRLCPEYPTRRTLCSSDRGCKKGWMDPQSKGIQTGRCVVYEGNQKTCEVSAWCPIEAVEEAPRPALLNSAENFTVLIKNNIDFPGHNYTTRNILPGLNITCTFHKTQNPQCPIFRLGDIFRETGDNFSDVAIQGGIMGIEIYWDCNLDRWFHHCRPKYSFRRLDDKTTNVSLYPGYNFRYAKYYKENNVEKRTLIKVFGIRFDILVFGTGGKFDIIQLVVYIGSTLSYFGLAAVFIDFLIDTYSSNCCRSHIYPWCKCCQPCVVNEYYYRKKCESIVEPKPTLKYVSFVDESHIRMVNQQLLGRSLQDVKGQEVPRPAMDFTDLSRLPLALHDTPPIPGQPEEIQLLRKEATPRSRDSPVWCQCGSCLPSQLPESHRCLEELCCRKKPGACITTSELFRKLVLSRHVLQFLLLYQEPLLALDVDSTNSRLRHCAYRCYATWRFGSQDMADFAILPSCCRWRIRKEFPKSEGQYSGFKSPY

`C[C@H]1Cn2c(nnc2C2CCOCC2)C(=O)N1Cc1cccc(C(F)(F)F)c1Cl` [Example 53, (6S)-7-[2-Chloro-3-(trifluoromethyl)benzyl]-6-methyl-3-(tetrahydro-2H-pyran-4-yl)-6,7-dihydro[1,2,4]triazolo[4,3-a]pyrazin-8(5H)-one] was tested. Which remaining activity at 10 µM did it give?
The remaining activity at 10 µM was 33.2%.

Which remaining activity at 10 µM does the source give for `C[C@H]1Cn2c(nnc2-c2nccc(C(F)(F)F)n2)C(=O)N1Cc1cccc(C(F)(F)F)c1Cl` [Example 54, (6S)-7-[2-chloro-3-(trifluoromethyl)benzyl]-6-methyl-3-[4-(trifluoromethyl)pyrimidin-2-yl]-6,7-dihydro[1,2,4]triazolo[4,3-a]pyrazin-8(5H)-one] here?
Its remaining activity at 10 µM is 4.2%.

For `C[C@H]1Cn2c(nnc2-c2cccc(C(F)(F)F)n2)C(=O)N1Cc1cccc(C(F)(F)F)c1Cl` [Example 55, (6S)-7-[2-Chloro-3-(trifluoromethyl)benzyl]-6-methyl-3-[6-(trifluoromethyl)pyridin-2-yl]-6,7-dihydro[1,2,4]triazolo[4,3-a]pyrazin-8(5H)-one], which remaining activity at 10 µM is on record?
Its remaining activity at 10 µM is 8.5%.

With `C[C@H]1Cn2c(nnc2-c2ccc(Cl)cn2)C(=O)N1Cc1cccc(C(F)(F)F)c1Cl` [Example 56, (6S)-3-(5-Chloropyridin-2-yl)-7-[2-chloro-3-(trifluoromethyl)benzyl]-6-methyl-6,7-dihydro[1,2,4]triazolo[4,3-a]pyrazin-8(5H)-one] as the molecule, how does the remaining activity at 10 µM read?
Its remaining activity at 10 µM is 11.2%.

Which remaining activity at 10 µM does the source give for `Cc1cncc(-c2nnc3n2C[C@H](C)N(Cc2cccc(C(F)(F)F)c2Cl)C3=O)c1` [Example 57, (6S)-7-[2-Chloro-3-(trifluoromethyl)benzyl]-6-methyl-3-(5-methylpyridin-3-yl)-6,7-dihydro[1,2,4]triazolo[4,3-a]pyrazin-8(5H)-one] here?
The remaining activity at 10 µM was 0.1%.

How did the remaining activity at 10 µM turn out when `C[C@H]1Cn2c(nnc2C2CCN(C(=O)OC(C)(C)C)C2)C(=O)N1Cc1cccc(C(F)(F)F)c1Cl` (stereo partly drawn) [Example 58, (6S)-tert-Butyl3-{7-[2-chloro-3-(trifluoromethyl)benzyl]-6-methyl-8-oxo-5,6,7,8-tetrahydro[1,2,4]triazolo[4,3-a]pyrazin-3-yl}pyrrolidine-1-carboxylate] was run?
The remaining activity at 10 µM was 24.6%.

Which remaining activity at 10 µM does the source give for `C[C@H]1Cn2c(nnc2C2CCCNC2)C(=O)N1Cc1cccc(C(F)(F)F)c1Cl` (stereo partly drawn) [Example 60, (6S)-7-[2-Chloro-3-(trifluoromethyl)benzyl]-6-methyl-3-piperidin-3-yl-6,7-dihydro[1,2,4]triazolo[4,3-a]pyrazin-8(5H)-one] here?
The remaining activity at 10 µM was 17.1%.

Which remaining activity at 10 µM does the source give for `CC[C@H]1Cn2c(nnc2-c2cnccn2)C(=O)N1Cc1cccc(C(F)(F)F)c1Cl` [Example 71, (6S)-7-[2-Chloro-3-(trifluoromethyl)benzyl]-6-ethyl-3-pyrazin-2-yl-6,7-dihydro[1,2,4]triazolo[4,3-a]pyrazin-8(5H)-one] here?
The remaining activity at 10 µM was 1.2%.

Which remaining activity at 10 µM does the source give for `CC[C@H]1Cn2c(nnc2-c2ncccn2)C(=O)N1Cc1cccc(C(F)(F)F)c1Cl` [Example 72, (6S)-7-[2-Chloro-3-(trifluoromethyl)benzyl]-6-ethyl-3-pyrimidin-2-yl-6,7-dihydro[1,2,4]triazolo[4,3-a]pyrazin-8(5H)-one] here?
The remaining activity at 10 µM was 1.9%.

Which remaining activity at 10 µM does the source give for `CC[C@H]1Cn2c(nnc2-c2cccnc2)C(=O)N1Cc1cccc(C(F)(F)F)c1Cl` [Example 73, (6S)-7-[2-Chloro-3-(trifluoromethyl)benzyl]-6-ethyl-3-pyridin-3-yl-6,7-dihydro[1,2,4]triazolo[4,3-a]pyrazin-8(5H)-one] here?
Its remaining activity at 10 µM is 6.2%.

With `CC[C@H]1Cn2c(nnc2-c2cc[nH]n2)C(=O)N1Cc1cccc(C(F)(F)F)c1Cl` [Example 74, (6S)-7-[2-Chloro-3-(trifluoromethyl)benzyl]-6-ethyl-3-(1H-pyrazol-3-yl)-6,7-dihydro[1,2,4]triazolo[4,3-a]pyrazin-8(5H)-one] as the molecule, how does the remaining activity at 10 µM read?
The remaining activity at 10 µM was 0.3%.

Which remaining activity at 10 µM does the source give for `CC[C@H]1Cn2c(nnc2-c2ncc(F)cn2)C(=O)N1Cc1cccc(C(F)(F)F)c1Cl` [Example 75, (6S)-7-[2-Chloro-3-(trifluoromethyl)benzyl]-6-ethyl-3-(5-fluoropyrimidin-2-yl)-6,7-dihydro[1,2,4]triazolo[4,3-a]pyrazin-8(5H)-one] here?
Its remaining activity at 10 µM is 22.6%.

`CC[C@H]1Cn2c(nnc2-c2ccc(F)cn2)C(=O)N1Cc1cccc(C(F)(F)F)c1Cl` [Example 76, (6S)-7-[2-Chloro-3-(trifluoromethyl)benzyl]-6-ethyl-3-(5-fluoropyridin-2-yl)-6,7-dihydro[1,2,4]triazolo[4,3-a]pyrazin-8(5H)-one] was tested. Which remaining activity at 10 µM did it give?
Its remaining activity at 10 µM is 16.9%.

Which remaining activity at 10 µM does the source give for `C[C@H]1Cn2c(nnc2-c2cnccn2)C(=O)N1` [Example 77, (6S)-6-Methyl-3-pyrazin-2-yl-6,7-dihydro[1,2,4]triazolo[4,3-a]pyrazin-8(5H)-one] here?
Its remaining activity at 10 µM is 105%.

How did the remaining activity at 10 µM turn out when `C[C@H]1Cn2c(nnc2-c2cnccn2)C(=O)N1Cc1ccc(F)cc1Cl` [Example 78, (6S)-7-(2-Chloro-4-fluorobenzyl)-6-methyl-3-pyrazin-2-yl-6,7-dihydro[1,2,4]triazolo[4,3-a]pyrazin-8(5H)-one] was run?
The remaining activity at 10 µM was 8.3%.

With `C[C@H]1Cn2c(nnc2-c2cnccn2)C(=O)N1Cc1ccccc1` [Example 79, (6S)-7-Benzyl-6-methyl-3-pyrazin-2-yl-6,7-dihydro[1,2,4]triazolo[4,3-a]pyrazin-8(5H)-one] as the molecule, how does the remaining activity at 10 µM read?
The remaining activity at 10 µM was 15.6%.

With `C[C@H]1Cn2c(nnc2-c2cnccn2)C(=O)N1Cc1ccccc1Cl` [Example 80, (6S)-7-(2-Chlorobenzyl)-6-methyl-3-pyrazin-2-yl-6,7-dihydro[1,2,4]triazolo[4,3-a]pyrazin-8(5H)-one] as the molecule, how does the remaining activity at 10 µM read?
Its remaining activity at 10 µM is 8.4%.

How did the remaining activity at 10 µM turn out when `C[C@H]1Cn2c(nnc2-c2cnccn2)C(=O)N1Cc1ccc(S(C)(=O)=O)cc1Cl` [Example 81, (6S)-7-[2-Chloro-4-(methylsulfonyl)benzyl]-6-methyl-3-pyrazin-2-yl-6,7-dihydro[1,2,4]triazolo[4,3-a]pyrazin-8(5H)-one] was run?
Its remaining activity at 10 µM is 170%.

For `C[C@H]1Cn2c(nnc2-c2cnccn2)C(=O)N1Cc1ccc(Cl)cc1S(C)(=O)=O` [Example 82, (6S)-7-[4-Chloro-2-(methylsulfonyl)benzyl]-6-methyl-3-pyrazin-2-yl-6,7-dihydro[1,2,4]triazolo[4,3-a]pyrazin-8(5H)-one], which remaining activity at 10 µM is on record?
The remaining activity at 10 µM was 22.2%.

How did the remaining activity at 10 µM turn out when `C[C@H]1Cn2c(nnc2-c2cnccn2)C(=O)N1Cc1ccccc1OC(F)(F)F` [Example 83, (6S)-6-Methyl-3-pyrazin-2-yl-7-[2-(trifluoromethoxy)benzyl]-6,7-dihydro[1,2,4]triazolo[4,3-a]pyrazin-8(5H)-one] was run?
Its remaining activity at 10 µM is 15.6%.

Which remaining activity at 10 µM does the source give for `C[C@H]1Cn2c(nnc2-c2cnccn2)C(=O)N1Cc1cc2c(cc1Cl)OCO2` [Example 84, (6S)-7-[(6-Chloro-1,3-benzodioxol-5-yl)methyl]-6-methyl-3-pyrazin-2-yl-6,7-dihydro[1,2,4]triazolo[4,3-a]pyrazin-8(5H)-one] here?
The remaining activity at 10 µM was 25.9%.

Which remaining activity at 10 µM does the source give for `Cc1c(CN2C(=O)c3nnc(-c4cnccn4)n3C[C@@H]2C)cccc1C(F)(F)F` [Example 85, (6S)-6-Methyl-7-[2-methyl-3-(trifluoromethyl)benzyl]-3-pyrazin-2-yl-6,7-dihydro[1,2,4]triazolo[4,3-a]pyrazin-8(5H)-one] here?
The remaining activity at 10 µM was 16.6%.

For `C[C@H]1Cn2c(nnc2-c2cnccn2)C(=O)N1Cc1c(Cl)cccc1Cl` [Example 86, (6S)-7-(2,6-Dichlorobenzyl)-6-methyl-3-pyrazin-2-yl-6,7-dihydro[1,2,4]triazolo[4,3-a]pyrazin-8(5H)-one], which remaining activity at 10 µM is on record?
Its remaining activity at 10 µM is 28.3%.

Which remaining activity at 10 µM does the source give for `Cc1cccc(C)c1CN1C(=O)c2nnc(-c3cnccn3)n2C[C@@H]1C` [Example 87, (6S)-7-(2,6-Dimethylbenzyl)-6-methyl-3-pyrazin-2-yl-6,7-dihydro[1,2,4]triazolo[4,3-a]pyrazin-8(5H)-one] here?
Its remaining activity at 10 µM is 27%.

With `C[C@H]1Cn2c(nnc2-c2cnccn2)C(=O)N1Cc1cccc(C(F)(F)F)c1` [Example 88, (6S)-6-Methyl-3-pyrazin-2-yl-7-[3-(trifluoromethyl)benzyl]-6,7-dihydro[1,2,4]triazolo[4,3-a]pyrazin-8(5H)-one] as the molecule, how does the remaining activity at 10 µM read?
The remaining activity at 10 µM was 29.9%.

For `C[C@H]1Cn2c(nnc2-c2cnccn2)C(=O)N1Cc1ccccc1[N+](=O)[O-]` [Example 89, (6S)-6-Methyl-7-(2-nitrobenzyl)-3-pyrazin-2-yl-6,7-dihydro[1,2,4]triazolo[4,3-a]pyrazin-8(5H)-one], which remaining activity at 10 µM is on record?
The remaining activity at 10 µM was 30.7%.

With `C[C@H]1Cn2c(nnc2-c2cnccn2)C(=O)N1Cc1cc([N+](=O)[O-])ccc1Cl` [Example 90, (6S)-7-(2-Chloro-5-nitrobenzyl)-6-methyl-3-pyrazin-2-yl-6,7-dihydro[1,2,4]triazolo[4,3-a]pyrazin-8(5H)-one] as the molecule, how does the remaining activity at 10 µM read?
The remaining activity at 10 µM was 24.4%.

Which remaining activity at 10 µM does the source give for `C[C@H]1Cn2c(nnc2-c2cnccn2)C(=O)N1Cc1cc(N)ccc1Cl` [Example 91, (6S)-7-(5-Amino-2-chlorobenzyl)-6-methyl-3-pyrazin-2-yl-6,7-dihydro[1,2,4]triazolo[4,3-a]pyrazin-8(5H)-one] here?
The remaining activity at 10 µM was 11.6%.

For `CC(c1ccccc1)N1C(=O)c2nnc(-c3cnccn3)n2C[C@@H]1C` (stereo partly drawn) [Example 92, (6S)-6-Methyl-7-(1-phenylethyl)-3-pyrazin-2-yl-6,7-dihydro[1,2,4]triazolo[4,3-a]pyrazin-8(5H)-one], which remaining activity at 10 µM is on record?
Its remaining activity at 10 µM is -1%.

Same assay, conditions: Table 2; 10 μM compound; IL-1β release, LPS + 0.5 mM Bz-ATP

How did the “PBMC 10 μM (% control)” value turn out when `CC[C@H]1Cn2c(nnc2-c2cnccn2)C(=O)N1Cc1cccc(C(F)(F)F)c1Cl` [Example 71, (6S)-7-[2-Chloro-3-(trifluoromethyl)benzyl]-6-ethyl-3-pyrazin-2-yl-6,7-dihydro[1,2,4]triazolo[4,3-a]pyrazin-8(5H)-one] was run?
The value was 1.2 % control.
